{"source": "patent US20260265538A1", "about": "“Aqueous Industrial Product Stabilized Against Microbial Contamination” (Thor GmbH, priority 2023, published 2026)", "tested_on": "Bacteria mixture 2 (alkaliphilic bacteria of the Nesterenkonia & Alkalibacterium genus)", "assay": "Repetitive stress test of paints with bacteria mixture 2, semiquantitative evaluation (examples 4 and 5)", "assay_type": "cell-based", "design": "key to Bacterial growth after inoculation: 0: No growth; Minimal growth, 1 to 10 colonies visible over the entire streak; 2: Light growth, maximum 100 colonies; Moderate growth, maximum 300 to 400 colonies; Uniform growth, >400 colonies, single colonies still clearly recognizable; 5: Heavy growth, too many colonies to count, but no growth over the entire streak; 6: Full growth, barely any single colonies still apparent, growth over the entire streak", "description": "Paints 1 to 3 were mixed and homogenized with various concentrations of the guanidinium salts to be tested.\nThe batches obtained of the paint thus prepared were inoculated repeatedly with a mixture of different wild-type bacterial strains that are of practical relevance with regard to contamination. These bacteria had previously been isolated from commercial emulsion paints containing conventional preservatives (bacteria mixture 1, Pseudomonas genus), which are microbially contaminated in practice, and commercial so-called preservative-free alkaline emulsion paints (bacteria mixture 2, alkaliphilic bacteria of the Nesterenkonia & Alkalibacterium genus), which are microbially contaminated in practice.\n• Nesterenkonia sp. DSM 108520 • Nesterenkonia sp. DSM 108521 • Alkalibacterium pelagium DSM 108522 • Nesterenkonia massiliensis DSM 110679 • Nesterenkonia sp. DSM 108519\nThe inoculum was added to the respective sample in each inoculation at 2% (v/w) as a fresh cell suspension in a physiological saline solution (0.9% NaCl). The cell count of the added inoculum in example 1 was 10^5/ml, in examples 2 to 5 10^9/ml, and in example 6 10^6/ml, each in equal portions consisting of the individual bacterial strains. The cell suspension was produced by growing the individual bacteria at 30° C. for 24 h in liquid culture on a shaker. The medium used to grow the bacteria from bacteria mixture 1 was Müller-Hinton liquid medium. Bacteria from bacteria mixture 2 were grown in Müller-Hinton liquid medium that had been adjusted to pH 9.5-9.7 with an alkaline buffer solution beforehand. After growing, the individual liquid cultures were centrifuged, and the cells were resuspended in physiological saline solution. In order to adjust the mixture to the desired cell count, the individual bacteria suspensions, if necessary, were diluted accordingly before being combined with saline solution. The cell count of the inoculum was determined in each case by chamber counting.\nIn examples 2 to 6, what is called a repetitive stress test with bacteria was conducted by inoculating the samples at particular time intervals repeatedly with a bacteria suspension having a cell count of 10^9/ml (2% v/w) and monitoring the evolution of the bacteria by a semiquantitative evaluation method. After each inoculation, the samples were incubated at 30° C. for 6 days (bacteria mixture 1 and 3) or 7 and 14 days (bacteria mixture 2), and after these periods bacterial infestation was evaluated semiquantitatively in each case. For this purpose, an aliquot was taken from each sample after homogenization using a sterile plastic inoculation loop (10 μl) and streaked evenly on agar plates (bacteria mixture 1 and 3 on tryptic soy agar, bacteria mixture 2 on DSMZ 31 alkaline nutrient agar). The streaked agar plates were then incubated at 30° C. for 48 h (bacteria mixture 1 and 3) or 5 to 7 days (bacteria mixture 2). After incubation, the bacterial colonies grown on the agar plates were visually evaluated and quantified according to the following scheme:\nA total of 3 inoculation cycles was performed in each repetitive stress test.\nInoculation 2% (w/v) with Bacteria Mixture 2, 10^9 CFU/ml", "data": [{"molecule": "N=C(N)N.N=C(N)N.O=C(O)O", "note": "[guanidine carbonate]", "values": [{"measurement": "Bacterial growth after inoculation", "setting": "Table 4, Paint 2, +0.1% guanidine carbonate (656 ppm guanidine), pH 8.9, 2. inoculation, 14 d", "value": "4 (Uniform growth, >400 colonies, single colonies still clearly recognizable)"}, {"measurement": "Bacterial growth after inoculation", "setting": "Table 4, Paint 2, +0.1% guanidine carbonate (656 ppm guanidine), pH 8.9, 3. inoculation, 7 d", "value": "6/6"}, {"measurement": "Bacterial growth after inoculation", "setting": "Table 4, Paint 2, +0.1% guanidine carbonate (656 ppm guanidine), pH 8.9, 3. inoculation, 14 d", "value": "6/6"}, {"measurement": "Bacterial growth after inoculation", "setting": "Table 4, Paint 2, +0.15% guanidine carbonate (984 ppm guanidine), pH 9.0, 1. inoculation, 7 d", "value": "0/0"}, {"measurement": "Bacterial growth after inoculation", "setting": "Table 4, Paint 2, +0.15% guanidine carbonate (984 ppm guanidine), pH 9.0, 1. inoculation, 14 d", "value": "0/0"}, {"measurement": "Bacterial growth after inoculation", "setting": "Table 4, Paint 2, +0.15% guanidine carbonate (984 ppm guanidine), pH 9.0, 2. inoculation, 7 d", "value": "2 (Light growth, maximum 100 colonies)"}, {"measurement": "Bacterial growth after inoculation", "setting": "Table 4, Paint 2, +0.15% guanidine carbonate (984 ppm guanidine), pH 9.0, 2. inoculation, 14 d", "value": "1 (Minimal growth, 1 to 10 colonies visible over the entire streak)"}, {"measurement": "Bacterial growth after inoculation", "setting": "Table 4, Paint 2, +0.15% guanidine carbonate (984 ppm guanidine), pH 9.0, 3. inoculation, 7 d", "value": "6/6"}, {"measurement": "Bacterial growth after inoculation", "setting": "Table 4, Paint 2, +0.15% guanidine carbonate (984 ppm guanidine), pH 9.0, 3. inoculation, 14 d", "value": "6/6"}, {"measurement": "Bacterial growth after inoculation", "setting": "Table 4, Paint 2, +0.2% guanidine carbonate (1312 ppm guanidine), pH 9.1, 1. inoculation, 7 d", "value": "0/0"}, {"measurement": "Bacterial growth after inoculation", "setting": "Table 4, Paint 2, +0.2% guanidine carbonate (1312 ppm guanidine), pH 9.1, 1. inoculation, 14 d", "value": "0/0"}, {"measurement": "Bacterial growth after inoculation", "setting": "Table 4, Paint 2, +0.2% guanidine carbonate (1312 ppm guanidine), pH 9.1, 2. inoculation, 7 d", "value": "0/0"}, {"measurement": "Bacterial growth after inoculation", "setting": "Table 4, Paint 2, +0.2% guanidine carbonate (1312 ppm guanidine), pH 9.1, 2. inoculation, 14 d", "value": "0/0"}, {"measurement": "Bacterial growth after inoculation", "setting": "Table 4, Paint 2, +0.2% guanidine carbonate (1312 ppm guanidine), pH 9.1, 3. inoculation, 7 d", "value": "6/6"}, {"measurement": "Bacterial growth after inoculation", "setting": "Table 4, Paint 2, +0.2% guanidine carbonate (1312 ppm guanidine), pH 9.1, 3. inoculation, 14 d", "value": "6/6"}, {"measurement": "Bacterial growth after inoculation", "setting": "Table 4, Paint 2, +0.25% guanidine carbonate (1640 ppm guanidine), pH 9.1, 1. inoculation, 7 d", "value": "0/0"}, {"measurement": "Bacterial growth after inoculation", "setting": "Table 4, Paint 2, +0.25% guanidine carbonate (1640 ppm guanidine), pH 9.1, 1. inoculation, 14 d", "value": "0/0"}, {"measurement": "Bacterial growth after inoculation", "setting": "Table 4, Paint 2, +0.25% guanidine carbonate (1640 ppm guanidine), pH 9.1, 2. inoculation, 7 d", "value": "0/0"}, {"measurement": "Bacterial growth after inoculation", "setting": "Table 4, Paint 2, +0.25% guanidine carbonate (1640 ppm guanidine), pH 9.1, 2. inoculation, 14 d", "value": "0/0"}, {"measurement": "Bacterial growth after inoculation", "setting": "Table 4, Paint 2, +0.25% guanidine carbonate (1640 ppm guanidine), pH 9.1, 3. inoculation, 7 d", "value": "0/0"}, {"measurement": "Bacterial growth after inoculation", "setting": "Table 4, Paint 2, +0.25% guanidine carbonate (1640 ppm guanidine), pH 9.1, 3. inoculation, 14 d", "value": "0/0"}, {"measurement": "Bacterial growth after inoculation", "setting": "Table 4, Paint 2, +0.3% guanidine carbonate (1968 ppm guanidine), pH 9.2, 1. inoculation, 7 d", "value": "0/0"}, {"measurement": "Bacterial growth after inoculation", "setting": "Table 4, Paint 2, +0.3% guanidine carbonate (1968 ppm guanidine), pH 9.2, 1. inoculation, 14 d", "value": "0/0"}, {"measurement": "Bacterial growth after inoculation", "setting": "Table 4, Paint 2, +0.3% guanidine carbonate (1968 ppm guanidine), pH 9.2, 2. inoculation, 7 d", "value": "0/0"}, {"measurement": "Bacterial growth after inoculation", "setting": "Table 4, Paint 2, +0.3% guanidine carbonate (1968 ppm guanidine), pH 9.2, 2. inoculation, 14 d", "value": "0/0"}, {"measurement": "Bacterial growth after inoculation", "setting": "Table 4, Paint 2, +0.3% guanidine carbonate (1968 ppm guanidine), pH 9.2, 3. inoculation, 7 d", "value": "0/0"}, {"measurement": "Bacterial growth after inoculation", "setting": "Table 4, Paint 2, +0.3% guanidine carbonate (1968 ppm guanidine), pH 9.2, 3. inoculation, 14 d", "value": "0/0"}, {"measurement": "Bacterial growth after inoculation", "setting": "Table 4, Paint 2, +0.4% guanidine carbonate (2624 ppm guanidine), pH 9.3, 1. inoculation, 7 d", "value": "0/0"}, {"measurement": "Bacterial growth after inoculation", "setting": "Table 4, Paint 2, +0.4% guanidine carbonate (2624 ppm guanidine), pH 9.3, 1. inoculation, 14 d", "value": "0/0"}, {"measurement": "Bacterial growth after inoculation", "setting": "Table 4, Paint 2, +0.4% guanidine carbonate (2624 ppm guanidine), pH 9.3, 2. inoculation, 7 d", "value": "0/0"}, {"measurement": "Bacterial growth after inoculation", "setting": "Table 4, Paint 2, +0.4% guanidine carbonate (2624 ppm guanidine), pH 9.3, 2. inoculation, 14 d", "value": "0/0"}, {"measurement": "Bacterial growth after inoculation", "setting": "Table 4, Paint 2, +0.4% guanidine carbonate (2624 ppm guanidine), pH 9.3, 3. inoculation, 7 d", "value": "0/0"}, {"measurement": "Bacterial growth after inoculation", "setting": "Table 4, Paint 2, +0.4% guanidine carbonate (2624 ppm guanidine), pH 9.3, 3. inoculation, 14 d", "value": "0/0"}, {"measurement": "Bacterial growth after inoculation", "setting": "Table 4, Paint 2, +0.5% guanidine carbonate (3280 ppm guanidine), pH 9.4, 1. inoculation, 7 d", "value": "0/0"}, {"measurement": "Bacterial growth after inoculation", "setting": "Table 4, Paint 2, +0.5% guanidine carbonate (3280 ppm guanidine), pH 9.4, 1. inoculation, 14 d", "value": "0/0"}, {"measurement": "Bacterial growth after inoculation", "setting": "Table 4, Paint 2, +0.5% guanidine carbonate (3280 ppm guanidine), pH 9.4, 2. inoculation, 7 d", "value": "0/0"}, {"measurement": "Bacterial growth after inoculation", "setting": "Table 4, Paint 2, +0.5% guanidine carbonate (3280 ppm guanidine), pH 9.4, 2. inoculation, 14 d", "value": "0/0"}, {"measurement": "Bacterial growth after inoculation", "setting": "Table 4, Paint 2, +0.5% guanidine carbonate (3280 ppm guanidine), pH 9.4, 3. inoculation, 7 d", "value": "0/0"}, {"measurement": "Bacterial growth after inoculation", "setting": "Table 4, Paint 2, +0.5% guanidine carbonate (3280 ppm guanidine), pH 9.4, 3. inoculation, 14 d", "value": "0/0"}, {"measurement": "Bacterial growth after inoculation", "setting": "Table 4, Paint 2, +1.0% guanidine carbonate (6560 ppm guanidine), pH 9.8, 1. inoculation, 7 d", "value": "0/0"}, {"measurement": "Bacterial growth after inoculation", "setting": "Table 4, Paint 2, +1.0% guanidine carbonate (6560 ppm guanidine), pH 9.8, 1. inoculation, 14 d", "value": "0/0"}, {"measurement": "Bacterial growth after inoculation", "setting": "Table 4, Paint 2, +1.0% guanidine carbonate (6560 ppm guanidine), pH 9.8, 2. inoculation, 7 d", "value": "0/0"}, {"measurement": "Bacterial growth after inoculation", "setting": "Table 4, Paint 2, +1.0% guanidine carbonate (6560 ppm guanidine), pH 9.8, 2. inoculation, 14 d", "value": "0/0"}, {"measurement": "Bacterial growth after inoculation", "setting": "Table 4, Paint 2, +1.0% guanidine carbonate (6560 ppm guanidine), pH 9.8, 3. inoculation, 7 d", "value": "0/0"}, {"measurement": "Bacterial growth after inoculation", "setting": "Table 4, Paint 2, +1.0% guanidine carbonate (6560 ppm guanidine), pH 9.8, 3. inoculation, 14 d", "value": "0/0"}, {"measurement": "Bacterial growth after inoculation", "setting": "Table 5, Paint 3, +0.15% guanidine carbonate (984 ppm guanidine), pH 11.2, 1. inoculation, 7 d", "value": "3 (Moderate growth, maximum 300 to 400 colonies)"}, {"measurement": "Bacterial growth after inoculation", "setting": "Table 5, Paint 3, +0.15% guanidine carbonate (984 ppm guanidine), pH 11.2, 1. inoculation, 14 d", "value": 0}, {"measurement": "Bacterial growth after inoculation", "setting": "Table 5, Paint 3, +0.15% guanidine carbonate (984 ppm guanidine), pH 11.2, 2. inoculation, 7 d", "value": "3 (Moderate growth, maximum 300 to 400 colonies)"}, {"measurement": "Bacterial growth after inoculation", "setting": "Table 5, Paint 3, +0.15% guanidine carbonate (984 ppm guanidine), pH 11.2, 2. inoculation, 14 d", "value": 0}, {"measurement": "Stabilization of the paint against microbial infestation", "setting": "table 4, addition of 0.1% by weight to paint 1 having a pH of 9.1 or greater", "value": "distinct stabilization"}, {"measurement": "Stabilization of the paint against microbial infestation", "setting": "table 4, addition of 0.1% by weight to paint 2 having a pH of 8.9 or greater", "value": "distinct stabilization"}, {"measurement": "Stabilization of the paint against microbial infestation", "setting": "table 5, paint having a pH of pH 11.2, addition of 0.1% by weight", "value": "distinct stabilization"}]}]}
